Laboratory results from PubChem BioAssay AID190 (DTP/NCI, 2004).
Where “and” joins values, the source holds several entries; their conditions need not be identical. Equal entries are not always repeated. Inconclusive results and toxic doses are left out. Rule for the calls: active = survival T/C of 150% or more; inactive = T/C below 125% in these data.

Tested on: AKR/Lw mice, AKR lymphoma ip, median survival T/C
Assay: NCI In Vivo Anticancer Drug Screen. Data for tumor model Lymphoma AKR (Transplanted) (intraperitoneal) in AKR/Lw mice
Details: endpoint: median survival time, higher = longer survival
Experimental: The antitumor activity of compounds was measured in mice bearing transplantable tumors. Survival or tumor size were measured and the results are expressed as the measurement made in the treated group (T) divided by the measurement made in the vehicle treated control group (C). The tumor model used in this assay is Lymphoma AKR (Transplanted) (intraperitoneal) in AKR/Lw mice

Measured: T/C

C[C@]12C=CC(=O)C=C1CC[C@@H]1[C@@H]2C(=O)C[C@@]2(C)[C@H]1CC[C@]2(O)C(=O)CO
inactive: dose: 1.5 mg/kg/injection, schedule: Q ##X008 (sc), vehicle: steriod suspending solution 108 % of control | dose: 1.5 mg/kg/injection, schedule: Q## X008 (sc), vehicle: steriod suspending solution 108 % of control | dose: 3.0 mg/kg/injection, schedule: Q ##X008 (sc), vehicle: steriod suspending solution 109 % of control | dose: 3.0 mg/kg/injection, schedule: Q## X008 (sc), vehicle: steriod suspending solution 109 % of control | dose: 5.0 mg/kg/injection, schedule: Q01DX009 (sc), vehicle: steriod suspending solution 97 % of control | dose: 6.0 mg/kg/injection, schedule: Q ##X008 (sc), vehicle: steriod suspending solution 106 % of control | dose: 6.0 mg/kg/injection, schedule: Q## X008 (sc), vehicle: steriod suspending solution 106 % of control | dose: 10.0 mg/kg/injection, schedule: Q01DX009 (sc), vehicle: steriod suspending solution 100 % of control | dose: 12.0 mg/kg/injection, schedule: Q ##X008 (sc), vehicle: steriod suspending solution 120 % of control | dose: 12.0 mg/kg/injection, schedule: Q## X008 (sc), vehicle: steriod suspending solution 120 % of control | dose: 12.5 mg/kg/injection, schedule: Q01DX001 (sc), vehicle: steriod suspending solution 108 % of control | dose: 12.5 mg/kg/injection, schedule: Q01DX008 (sc), vehicle: steriod suspending solution 94 % of control | dose: 12.5 mg/kg/injection, schedule: Q04DX003 (sc), vehicle: steriod suspending solution 112 % of control | dose: 12.5 mg/kg/injection, schedule: Q## X008 (sc), vehicle: steriod suspending solution 94 % of control | dose: 15.0 mg/kg/injection, schedule: Q04DX002 (sc), vehicle: water 96 % of control | dose: 20.0 mg/kg/injection, schedule: Q01DX009 (sc), vehicle: steriod suspending solution 108 % of control | dose: 25.0 mg/kg/injection, schedule: Q01DX001 (sc), vehicle: steriod suspending solution 108 % of control and 113 % of control | dose: 25.0 mg/kg/injection, schedule: Q01DX004 (sc), vehicle: steriod suspending solution 115 % of control | dose: 25.0 mg/kg/injection, schedule: Q01DX008 (sc), vehicle: steriod suspending solution 119 % of control | dose: 25.0 mg/kg/injection, schedule: Q01DX009 (sc), vehicle: Klucel (hydroxypropylcellulose) (HPC) 96 % of control | dose: 25.0 mg/kg/injection, schedule: Q01DX009 (sc), vehicle: steriod suspending solution 100 % of control | dose: 25.0 mg/kg/injection, schedule: Q04DX002 (sc), vehicle: steriod suspending solution 99 % of control and 100 % of control | dose: 25.0 mg/kg/injection, schedule: Q04DX003 (sc), vehicle: steriod suspending solution 87 % of control | dose: 25.0 mg/kg/injection, schedule: Q## X008 (sc), vehicle: steriod suspending solution 120 % of control | dose: 30.0 mg/kg/injection, schedule: Q04DX002 (sc), vehicle: water 94 % of control and 98 % of control | dose: 35.0 mg/kg/injection, schedule: Q01DX001 (sc), vehicle: steriod suspending solution 96 % of control | dose: 45.0 mg/kg/injection, schedule: Q01DX001 (sc), vehicle: steriod suspending solution 105 % of control | dose: 50.0 mg/kg/injection, schedule: Q01DX004 (sc), vehicle: steriod suspending solution 100 % of control | dose: 50.0 mg/kg/injection, schedule: Q01DX008 (sc), vehicle: steriod suspending solution 101 % of control | dose: 50.0 mg/kg/injection, schedule: Q01DX009 (ip), vehicle: water 115 % of control | dose: 50.0 mg/kg/injection, schedule: Q01DX009 (sc), vehicle: steriod suspending solution 110 % of control | dose: 50.0 mg/kg/injection, schedule: Q04DX002 (sc), vehicle: steriod suspending solution 109 % of control | dose: 50.0 mg/kg/injection, schedule: Q04DX003 (sc), vehicle: steriod suspending solution 100 % of control and 108 % of control and 112 % of control | dose: 50.0 mg/kg/injection, schedule: Q## X008 (sc), vehicle: steriod suspending solution 101 % of control | dose: 60.0 mg/kg/injection, schedule: Q04DX002 (sc), vehicle: water 110 % of control and 111 % of control | dose: 75.0 mg/kg/injection, schedule: Q01DX001 (sc), vehicle: steriod suspending solution 100 % of control | dose: 75.0 mg/kg/injection, schedule: Q04DX002 (sc), vehicle: steriod suspending solution 106 % of control | dose: 90.0 mg/kg/injection, schedule: Q01DX001 (sc), vehicle: steriod suspending solution 114 % of control | dose: 100.0 mg/kg/injection, schedule: Q01DX004 (sc), vehicle: steriod suspending solution 113 % of control | dose: 100.0 mg/kg/injection, schedule: Q01DX008 (sc), vehicle: steriod suspending solution 78 % of control | dose: 100.0 mg/kg/injection, schedule: Q01DX009 (ip), vehicle: water 118 % of control | dose: 100.0 mg/kg/injection, schedule: Q01DX009 (sc), vehicle: steriod suspending solution 102 % of control | dose: 100.0 mg/kg/injection, schedule: Q04DX002 (sc), vehicle: steriod suspending solution 110 % of control | dose: 150.0 mg/kg/injection, schedule: Q04DX003 (ip), vehicle: saline 92 % of control | dose: 150.0 mg/kg/injection, schedule: Q04DX003 (sc), vehicle: steriod suspending solution 105 % of control and 118 % of control and 121 % of control | dose: 180.0 mg/kg/injection, schedule: Q01DX001 (sc), vehicle: steriod suspending solution 120 % of control | dose: 200.0 mg/kg/injection, schedule: Q01DX001 (sc), vehicle: steriod suspending solution 93 % of control and 102 % of control (2×) | dose: 200.0 mg/kg/injection, schedule: Q01DX009 (sc), vehicle: steriod suspending solution 89 % of control | dose: 300.0 mg/kg/injection, schedule: Q04DX003 (ip), vehicle: saline 95 % of control | dose: 300.0 mg/kg/injection, schedule: Q04DX003 (sc), vehicle: steriod suspending solution 114 % of control and 115 % of control (2×) | dose: 400.0 mg/kg/injection, schedule: Q04DX003 (sc), vehicle: steriod suspending solution 95 % of control | dose: 500.0 mg/kg/injection, schedule: Q01DX001 (sc), vehicle: steriod suspending solution 95 % of control | dose: 600.0 mg/kg/injection, schedule: Q01DX001 (sc), vehicle: steriod suspending solution 102 % of control

COC(=O)Cc1ccc([N+](=O)[O-])cc1[N+](=O)[O-]
inactive: dose: 100.0 mg/kg/injection, schedule: Q01DX001 (ip), vehicle: saline 94 % of control | dose: 200.0 mg/kg/injection, schedule: Q01DX001 (ip), vehicle: saline 94 % of control | dose: 400.0 mg/kg/injection, schedule: Q01DX001 (ip), vehicle: saline 97 % of control
